{
  "source": "ChEMBL document CHEMBL4190183",
  "about": "(Medchemcomm, 2016)",
  "key": {"HEK293": {"system": "HEK293", "experiment": "Cytotoxicity against HEK293 cells assessed as cell death at 10 uM after 48 hrs by MTT assay relative to control", "assay_type": "cell-based", "settings": "human, hek293, 48 h"}, "A549": {"system": "A549", "experiment": "Cytotoxicity against human A549 cells assessed as cell death at 10 uM after 48 hrs by MTT assay relative to control", "assay_type": "functional"}, "Mesocricetus auratus [1]": {"organism": "Mesocricetus auratus", "experiment": "Half life in hamster liver microsomes at 1 uM by LC-MS/MS analysis", "settings": "golden Syrian hamster"}, "HepG2 [2]": {"system": "HepG2", "experiment": "Antimetastatic activity against human HepG2 cells assessed as wound healing at 10 uM after 18 hrs by microscopic method (reference value: 32%)", "assay_type": "functional"}, "DNA ligase 1 [3]": {"molecular_target": "T1, DNA ligase 1 (Homo sapiens, UniProt P18858)", "T1 sequence (P18858 whole entry)": "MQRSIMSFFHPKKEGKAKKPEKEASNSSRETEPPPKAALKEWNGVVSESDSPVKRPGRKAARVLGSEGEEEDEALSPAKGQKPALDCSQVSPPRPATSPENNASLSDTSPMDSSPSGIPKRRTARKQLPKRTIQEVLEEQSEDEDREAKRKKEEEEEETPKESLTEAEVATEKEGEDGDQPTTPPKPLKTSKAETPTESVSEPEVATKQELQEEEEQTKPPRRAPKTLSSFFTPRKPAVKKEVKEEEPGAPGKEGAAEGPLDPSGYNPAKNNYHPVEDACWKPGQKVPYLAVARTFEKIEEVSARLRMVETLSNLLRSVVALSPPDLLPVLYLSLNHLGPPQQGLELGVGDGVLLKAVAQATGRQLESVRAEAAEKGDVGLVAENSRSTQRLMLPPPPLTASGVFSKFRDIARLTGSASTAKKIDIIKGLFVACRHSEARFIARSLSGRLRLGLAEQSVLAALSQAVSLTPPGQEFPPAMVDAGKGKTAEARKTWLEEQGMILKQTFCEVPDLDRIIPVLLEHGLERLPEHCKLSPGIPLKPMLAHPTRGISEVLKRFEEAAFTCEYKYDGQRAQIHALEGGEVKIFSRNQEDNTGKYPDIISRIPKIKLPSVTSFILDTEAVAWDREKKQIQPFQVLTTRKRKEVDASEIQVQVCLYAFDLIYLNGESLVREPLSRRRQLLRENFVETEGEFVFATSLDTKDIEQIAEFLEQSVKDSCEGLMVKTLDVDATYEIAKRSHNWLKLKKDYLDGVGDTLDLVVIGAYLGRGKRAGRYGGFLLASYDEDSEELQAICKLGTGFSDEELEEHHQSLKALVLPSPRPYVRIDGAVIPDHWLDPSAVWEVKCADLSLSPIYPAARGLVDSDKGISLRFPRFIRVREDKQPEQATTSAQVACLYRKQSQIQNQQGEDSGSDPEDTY", "experiment": "Binding affinity to human full length N-terminal His-tagged DNA ligase 1 expressed in Escherichia coli BL21(DE3)RP cells assessed as destabilization of enzyme-nicked oligo DNA complex after 2 hrs by electrophoretic mobility shift assay"}, "Mesocricetus auratus [4]": {"organism": "Mesocricetus auratus", "experiment": "Metabolic stability in hamster liver microsomes assessed as parent compound remaining at 1 uM after 60 mins in presence of NADPH by LC-MS/MS analysis", "settings": "golden Syrian hamster"}, "HepG2 [5]": {"system": "HepG2", "experiment": "Cell cycle arrest in human HepG2 cells assessed as accumulation at G0/G1 phase at 20 uM after 24 hrs by propidium iodide staining based flow cytometry (reference value: 56.8 +/- 1.16%)", "assay_type": "functional"}, "DNA ligase 1 [6]": {"molecular_target": "T1, DNA ligase 1", "experiment": "Inhibition of human DNA ligase 1 expressed in Escherichia coli BL21(DE3)RP cells assessed as reduction in fluorescently labelled ds nicked DNA substrate ligation at 100 uM after 30 mins by urea gel based imaging method relative to control"}, "DNA ligase 1 [7]": {"molecular_target": "T1, DNA ligase 1", "experiment": "Binding affinity to human N-terminal His-tagged DNA ligase 1 DBD expressed in Escherichia coli BL21(DE3)RP cells at 1.25 to 5 uM by CD spectroscopic method"}, "[8]": {"experiment": "Aqueous solubility of the compound in triple distilled water at 1 to 1000 uM after 2 hrs by nephelometric method", "assay_type": "physicochemical"}, "HepG2 [9]": {"system": "HepG2", "experiment": "Antimetastatic activity against human HepG2 cells assessed as wound healing at 20 uM after 12 hrs by microscopic method (reference value: 21%)", "assay_type": "functional"}, "DNA ligase 1 [10]": {"molecular_target": "T1, DNA ligase 1", "experiment": "Binding affinity to human full length N-terminal His-tagged DNA ligase 1 expressed in Escherichia coli BL21(DE3)RP cells at 1.25 to 5 uM by CD spectroscopic method"}, "Mesocricetus auratus [11]": {"organism": "Mesocricetus auratus", "experiment": "Intrinsic clearance in hamster liver microsomes at 1 uM by LC-MS/MS analysis", "settings": "golden Syrian hamster"}, "[12]": {"experiment": "Stability of the compound in simulated gastric fluid at 5 uM at pH 1.2 measured up to 60 mins by LC-MS/MS analysis", "assay_type": "ADME", "settings": "simulated gi fluid, pH 1.2, 1 h"}, "HepG2 [13]": {"system": "HepG2", "experiment": "Induction of DNA damage in human HepG2 cells assessed as increase in gamma-H2AX expression levels at 10 to 20 uM after 48 hrs by Western blot analysis", "assay_type": "functional, cell-based"}, "[14]": {"experiment": "Stability of the compound in simulated intestinal fluid at 5 uM at pH 6.8 measured up to 120 mins by LC-MS/MS analysis", "assay_type": "ADME", "settings": "simulated gi fluid, pH 6.8, 2 h"}, "[15]": {"experiment": "Protein binding in hamster plasma at 10 uM at pH 7.4 incubated for 30 mins measured after 10 hrs by LC-MS/MS based equilibrium dialysis method", "assay_type": "ADME, cell-free, Cricetulus griseus", "settings": "chinese hamster, read-out: PPB"}, "DNA ligase 1 [16]": {"molecular_target": "T1, DNA ligase 1", "experiment": "Binding affinity to human N-terminal His-tagged DNA ligase 1 DBD expressed in Escherichia coli BL21(DE3)RP cells at 10 uM by fluorescence spectroscopic analysis"}, "HepG2 [17]": {"system": "HepG2", "experiment": "Cytotoxicity against human HepG2 cells assessed as decrease in cell viability after 48 hrs by MTT assay", "assay_type": "functional, cell-based"}, "HepG2 [18]": {"system": "HepG2", "experiment": "Antimetastatic activity against human HepG2 cells assessed as wound healing at 20 uM after 18 hrs by microscopic method (reference value: 32%)", "assay_type": "functional"}, "MDA-MB-231": {"system": "MDA-MB-231", "experiment": "Cytotoxicity against human MDA-MB-231 cells assessed as cell death at 10 uM after 48 hrs by MTT assay relative to control", "assay_type": "functional"}, "[19]": {"experiment": "Retention time of the compound by LC-MS/MS analysis", "assay_type": "physicochemical"}, "HepG2 [20]": {"system": "HepG2", "experiment": "Induction of apoptosis in human HepG2 cells after 48 hrs by Annexin-V/PI staining based flow cytometry", "assay_type": "functional, cell-based"}, "DNA ligase 1 [21]": {"molecular_target": "T1, DNA ligase 1", "experiment": "Inhibition of human DNA ligase 1 expressed in Escherichia coli BL21(DE3)RP cells assessed as reduction in nick sealing activity using fluorescently labelled ds nicked DNA as substrate after 30 mins by urea gel based imaging method"}, "DLD-1": {"system": "DLD-1", "experiment": "Cytotoxicity against human DLD1 cells assessed as cell death at 10 uM after 48 hrs by MTT assay relative to control", "assay_type": "functional"}, "HCT-116": {"system": "HCT-116", "experiment": "Cytotoxicity against human HCT116 cells assessed as cell death at 10 uM after 48 hrs by MTT assay relative to control", "assay_type": "functional"}, "HepG2 [22]": {"system": "HepG2", "experiment": "Induction of cell death in human HepG2 cells at 5 uM after 48 hrs by MTT assay", "assay_type": "functional, cell-based"}, "HepG2 [23]": {"system": "HepG2", "experiment": "Cell cycle arrest in human HepG2 cells assessed as accumulation at G0/G1 phase at 10 uM after 24 hrs by propidium iodide staining based flow cytometry (reference value: 56.8 +/- 1.16%)", "assay_type": "functional"}, "DNA [24]": {"system": "DNA", "experiment": "Inhibition of EtBr binding to Escherichia coli pUC18 DNA up to 400 uM after 30 mins by fluorescence spectroscopic analysis", "assay_type": "nucleic-acid assay"}, "DNA [25]": {"system": "DNA", "experiment": "Induction of linearized Escherichia coli pUC18 DNA intercalation up to 600 uM after 30 mins by agarose gel electrophoresis method", "assay_type": "nucleic-acid assay"}, "HepG2 [26]": {"system": "HepG2", "experiment": "Induction of apoptosis in human HepG2 cells assessed as increase in p53 expression levels at 10 to 20 uM after 48 hrs by Western blot analysis", "assay_type": "functional, cell-based"}, "HepG2 [27]": {"system": "HepG2", "experiment": "Cell cycle arrest in human HepG2 cells assessed as accumulation at G0/G1 phase at 10 uM after 12 hrs by propidium iodide staining based flow cytometry (reference value: 42.7 +/- 1.5%)", "assay_type": "functional"}, "DNA ligase 1 [28]": {"molecular_target": "T1, DNA ligase 1", "experiment": "Residual activity of human DNA ligase 1 expressed in Escherichia coli BL21(DE3)RP cells assessed as DNA ligation at 100 uM using fluorescently labelled ds nicked DNA as substrate after 30 mins by urea gel based imaging method relative to control"}, "DNA ligase 1 [29]": {"molecular_target": "T1, DNA ligase 1", "experiment": "Binding affinity to human full length N-terminal His-tagged DNA ligase 1 expressed in Escherichia coli BL21(DE3)RP cells at 10 uM by fluorescence spectroscopic analysis"}, "HepG2 [30]": {"system": "HepG2", "experiment": "Cell cycle arrest in human HepG2 cells assessed as accumulation at G0/G1 phase at 20 uM after 12 hrs by propidium iodide staining based flow cytometry (reference value: 42.7 +/- 1.5%)", "assay_type": "functional"}, "HepG2 [31]": {"system": "HepG2", "experiment": "Cytotoxicity against human HepG2 cells assessed as cell death at 10 uM after 48 hrs by MTT assay relative to control", "assay_type": "functional"}, "HepG2 [32]": {"system": "HepG2", "experiment": "Antiproliferative activity against human HepG2 cells assessed as decrease in PCNA expression level at 10 to 20 uM after 48 hrs by Western blot analysis", "assay_type": "functional, cell-based"}, "HepG2 [33]": {"system": "HepG2", "experiment": "Anticlonogenic activity against human HepG2 cells at >= 10 uM incubated for 48 hrs measured after 10 days by crystal violet staining based microscopy", "assay_type": "functional, cell-based"}, "HepG2 [34]": {"system": "HepG2", "experiment": "Synergistic cytotoxicity against human HepG2 cells assessed as induction of cell death at 5 uM after 48 hrs in presence of 0.625 uM doxorubicin by MTT assay", "assay_type": "functional, cell-based"}, "HepG2 [35]": {"system": "HepG2", "experiment": "Antimetastatic activity against human HepG2 cells assessed as wound healing at 10 uM after 12 hrs by microscopic method (reference value: 21%)", "assay_type": "functional"}},
  "note": "pIC50: −log10 of the molar value. The source made the active and inactive calls. The rule behind the calls is not given here.",
  "data": [
    {"smiles": "CCOC(=O)C1=C(C)NC(=O)NC1c1cc(/C=N/NC(=O)Nc2cccc(OC)c2)c(O)c(C(C)(C)C)c1", "note": "(configuration not stated)", "values": [
      {"measurement": "Activity", "setting": "HEK293", "value": 11.7, "unit": "%"},
      {"measurement": "Activity", "setting": "A549", "value": 18.1, "unit": "%"},
      {"measurement": "half-life at 1 µM", "setting": "Mesocricetus auratus [1]", "value": 20.8, "unit": "min"},
      {"measurement": "Activity", "setting": "HepG2 [2]", "value": 16.4, "unit": "%"},
      {"measurement": "Activity", "setting": "DNA ligase 1 [3]", "value": "Dose-dependent effect"},
      {"measurement": "remaining at 1 h, 1 µM", "setting": "Mesocricetus auratus [4]", "value": 12.9, "unit": "%"},
      {"measurement": "Activity", "setting": "HepG2 [5]", "value": 84.8, "unit": "%"},
      {"measurement": "inhibition", "setting": "DNA ligase 1 [6]", "value": 82.7, "unit": "%"},
      {"measurement": "Activity", "setting": "DNA ligase 1 [7]", "value": "Active"},
      {"measurement": "solubility kinetic at 2 h", "setting": "[8]", "value": 30, "unit": "µM"},
      {"measurement": "Activity", "setting": "HepG2 [9]", "value": 7.5, "unit": "%"},
      {"measurement": "Activity", "setting": "DNA ligase 1 [10]", "value": "Active"},
      {"measurement": "CLH", "setting": "Mesocricetus auratus [11]", "value": 33.29, "unit": "µL/min/mg"},
      {"measurement": "Stability", "setting": "[12]", "value": "Stable"},
      {"measurement": "Activity", "setting": "HepG2 [13]", "value": "Active"},
      {"measurement": "Stability", "setting": "[14]", "value": "Stable"},
      {"measurement": "fraction unbound at 10 h, 10 µM", "setting": "[15]", "value": 0.0098},
      {"measurement": "Activity", "setting": "DNA ligase 1 [16]", "value": "Active"},
      {"measurement": "Activity", "setting": "HepG2 [17]", "value": "Dose-dependent effect"},
      {"measurement": "pIC50", "setting": "HepG2 [17]; HepG2, 48 h", "value": 4.97},
      {"measurement": "Activity", "setting": "HepG2 [18]", "value": 5.5, "unit": "%"},
      {"measurement": "Activity", "setting": "MDA-MB-231", "value": 28.4, "unit": "%"},
      {"measurement": "Retention_time", "setting": "[19]", "value": 2.98, "unit": "min"},
      {"measurement": "Activity", "setting": "HepG2 [20]", "value": "Dose-dependent effect"},
      {"measurement": "pIC50", "setting": "DNA ligase 1 [21]", "value": 4.90},
      {"measurement": "inhibition", "setting": "DNA ligase 1 [21]", "value": "Dose-dependent effect"},
      {"measurement": "Activity", "setting": "DLD-1", "value": 29.4, "unit": "%"},
      {"measurement": "Activity", "setting": "HCT-116", "value": 18.2, "unit": "%"},
      {"measurement": "Activity", "setting": "HepG2 [22]", "value": "Active"},
      {"measurement": "Activity", "setting": "HepG2 [23]", "value": 68.1, "unit": "%"},
      {"measurement": "inhibition", "setting": "DNA [24]", "value": "inactive"},
      {"measurement": "Activity", "setting": "DNA [25]", "value": "inactive"},
      {"measurement": "Activity", "setting": "HepG2 [26]", "value": "Active"},
      {"measurement": "Activity", "setting": "HepG2 [27]", "value": 59.1, "unit": "%"},
      {"measurement": "ligation", "setting": "DNA ligase 1 [28]", "value": 17.4, "unit": "%"},
      {"measurement": "Activity", "setting": "DNA ligase 1 [29]", "value": "Active"},
      {"measurement": "Activity", "setting": "HepG2 [30]", "value": 64, "unit": "%"},
      {"measurement": "Activity", "setting": "HepG2 [31]", "value": 52.2, "unit": "%"},
      {"measurement": "Activity", "setting": "HepG2 [32]", "value": "Active"},
      {"measurement": "Activity", "setting": "HepG2 [33]", "value": "Active"},
      {"measurement": "Activity", "setting": "HepG2 [34]", "value": "Active"},
      {"measurement": "Activity", "setting": "HepG2 [35]", "value": 11.2, "unit": "%"}
    ]}
  ]
}
